The source of these data is patent US20210220489A1, “AMYGDALAR NEURAL ENSEMBLE THAT ENCODES THE UNPL[…] PAIN” (The Board of Trustees of the Leland Stanford Junior …, priority 2020, published 2021).

In one assay the test system is o-TRAP^hM4 mice. Put plainly: Pain behaviors evoked by optogenetic activation of nociceptors (o-TRAP^hM4). The note with it: noxious transdermal light stimuli. It is filed as in vivo. The text has this:
Different AAV serotypes display unique infection tropisms. […] To express the light-sensitive cation channel channelrhodopsin2 (ChR2) in putative primary afferent nociceptors, we intrathecally injected AAV6-hSyn-ChR2(H134R)-eYFP immediately following the i.c. BLA injections of AAV-DIO-DREADD(Gi)-mCherry in TRAP mice while remaining anesthetized under isoflurane (1-2% maintenance). Specifically, we shaved a small patch of fur on the back, wiped with alcohol and Betadine, and then inserted a 33G beveled needle connected to a WPI Nanofil syringe between the L5/L6 vertebrae and through the dura (confirmation by presence of reflexive tail flick). We slowly administered the virus was over 20 s. We retuned mice to their home cage for 4-6 weeks before behavioral verification of ChR2 expression. […] As we sought expression in lumbar DRGs for the purposes of our behavioral experiments that involve sensory testing on the hind limbs, we performed a behavioral screening of each mouse for transdermal light-responsivity when light was applied to the hindpaw. We placed mice inside individual red plastic cylinders (10.16-cm D) on a thin glass surface. […] We measured whether an immediate nociceptive hindpaw reflex and/or pain affective-motivational behaviors (described below) occurred in response to the light indicated ChR2 expression in nociceptors. […]

Another assay has as its system control neuropathic mice. In words: Pain behaviors in control neuropathic mice not expressing hM4-mCherry in the BLA. The class given is in vivo. The note with it: absence of hM4 expression, CNO 10 mg/kg, morphine as positive control. From the text: To induce a chronic pain state, we used a modified version of the Spared Nerve Injury (SNI) model of neuropathic pain, as previously described (70). This model entails surgical section of two of the sciatic nerve branches (common peroneal and tibial branches) while sparing the third (sural branch). […] To perform this peripheral nerve injury procedure, anesthesia was induced and maintained throughout surgery with isoflurane (4% induction, 1.5% maintenance in oxygen). The left hind leg was shaved and wiped clean with alcohol and betadine. We made a 1-cm incision in the skin of the mid-dorsal thigh, approximately where the sciatic nerve trifurcates. The biceps femoris and semimembranosus muscles were gently separated from one another with blunt scissors, thereby creating a <1-cm opening between the muscle groups to expose the common peroneal, tibial, and sural branches of the sciatic nerve. Next, −2 mm of both the common peroneal and tibial nerves were transected and removed, without suturing and with care not to distend the sural nerve. The leg muscles are left uncultured and the skin was closed with tissue adhesive (3M Vetbond), followed by a Betadine application. During recovery from surgery, mice were placed under a heat lamp until awake and achieved normal balanced movement. Mice were then returned to their home cage and closely monitored over the following three days for well-being.
To evaluate mechanical reflexive sensitivity, we used a logarithmically increasing set of 8 von Frey filaments (Stoelting), ranging in gram force from 0.07- to 6.0-g (93). These filaments were applied perpendicular to the plantar hindpaw with sufficient force to cause a slight bending of the filament. […] Using the Up-Down statistical method, the 50% withdrawal mechanical threshold scores were calculated for each mouse and then averaged across the experimental groups. The response frequency was calculated as the number of positive responses out of 10 stimulations, delivered at 30-s intervals.
To evaluate affective-motivational responses evoked by thermal stimulation (81), we applied either a single, unilateral 50-μL drop of water (5, 30, or 55° C.) or acetone (evaporative cooling) to the left hindpaw, and the duration of attending behavior was collected for up to 60 s after the stimulation. […] The track was subdivided into 25 temperature zones (4.8-cm D per zone), and we assessed the temperature at the center of each zone by a K-probe thermocouple. […] A video camera placed above the track recorded the position of the mouse within the temperature zones, and videos were later analyzed using a video-tracking software (Etho-vision, Noldus) for duration of zone occupancy, zone visits, distance, velocity, and acceleration.

Take `C[N+]1([O-])CCN(C2=Nc3cc(Cl)ccc3Nc3ccccc32)CC1` [CNO, clozapine-N-oxide]: in the assay on o-TRAP^hM4 mice, the “attending and escape behaviors” value is listed as “reduces”. In addition, the affective-motivational behaviors entry in the assay on control neuropathic mice (acetone drop) is “Lack of effect”. Besides, in the assay with control neuropathic mice (von Frey filaments), the reflex behaviors result is “Lack of effect”.
